1 molecule from patent US7351721B2, “Amino acid derivatives and pharmaceutical composition comprising, as active ingredients, them” (Ono Pharmaceutical Co., Ltd., priority 1999, dated 2008) can be followed below.

The target in this test is T1, N-type calcium channel (Homo sapiens, UniProt Q00975).
T1 construct: endogenous in cells
Briefly: Determination of inhibitory activity on N-type calcium channel (Fura-2 fluorescence, KCl depolarization, with nifedipine). The class given is cell-based. To be noted: compound at final concentration of 3 μM; depolarized with 80 mM potassium chloride; in presence of nifedipine; read-out: Inhibitory effect on calcium flow (%). How it is done:
Determination of Inhibitory Activity on N-type Calcium Channel
Cell line was differentiated according to the method described in FEBS Letters, 235, 178-182, 1988. The cell was loaded with fluorescent reagent, Fura-2·AM (at the final concentration of 10 μM), at 37° C. for 30 minutes and suspended in Krebs-buffer containing HEPES (25 mM) to obtain the cell suspension. The obtained cell suspension was incubated in the presence or absence of the compounds of the present invention with nifedipine for 5 minutes. The cell was depolarized by adding potassium chloride solution (at the final concentration of 80 mM) thereto and then a fluorescence intensity at the emission wavelength of 500 nm excited by the UV of 340 nm and 380 nm alternately was measured using the intracellular calcium analyzer (Nippon Bunko Co., CAF-110). The inhibitory activity of the compound of the present invention (at the final concentration of 3 μM) on calcium influx into the cell was calculated from the difference in changing the fluorescence intensity at peak (ΔR) according to the following equation.

T1 sequence (Q00975 whole entry): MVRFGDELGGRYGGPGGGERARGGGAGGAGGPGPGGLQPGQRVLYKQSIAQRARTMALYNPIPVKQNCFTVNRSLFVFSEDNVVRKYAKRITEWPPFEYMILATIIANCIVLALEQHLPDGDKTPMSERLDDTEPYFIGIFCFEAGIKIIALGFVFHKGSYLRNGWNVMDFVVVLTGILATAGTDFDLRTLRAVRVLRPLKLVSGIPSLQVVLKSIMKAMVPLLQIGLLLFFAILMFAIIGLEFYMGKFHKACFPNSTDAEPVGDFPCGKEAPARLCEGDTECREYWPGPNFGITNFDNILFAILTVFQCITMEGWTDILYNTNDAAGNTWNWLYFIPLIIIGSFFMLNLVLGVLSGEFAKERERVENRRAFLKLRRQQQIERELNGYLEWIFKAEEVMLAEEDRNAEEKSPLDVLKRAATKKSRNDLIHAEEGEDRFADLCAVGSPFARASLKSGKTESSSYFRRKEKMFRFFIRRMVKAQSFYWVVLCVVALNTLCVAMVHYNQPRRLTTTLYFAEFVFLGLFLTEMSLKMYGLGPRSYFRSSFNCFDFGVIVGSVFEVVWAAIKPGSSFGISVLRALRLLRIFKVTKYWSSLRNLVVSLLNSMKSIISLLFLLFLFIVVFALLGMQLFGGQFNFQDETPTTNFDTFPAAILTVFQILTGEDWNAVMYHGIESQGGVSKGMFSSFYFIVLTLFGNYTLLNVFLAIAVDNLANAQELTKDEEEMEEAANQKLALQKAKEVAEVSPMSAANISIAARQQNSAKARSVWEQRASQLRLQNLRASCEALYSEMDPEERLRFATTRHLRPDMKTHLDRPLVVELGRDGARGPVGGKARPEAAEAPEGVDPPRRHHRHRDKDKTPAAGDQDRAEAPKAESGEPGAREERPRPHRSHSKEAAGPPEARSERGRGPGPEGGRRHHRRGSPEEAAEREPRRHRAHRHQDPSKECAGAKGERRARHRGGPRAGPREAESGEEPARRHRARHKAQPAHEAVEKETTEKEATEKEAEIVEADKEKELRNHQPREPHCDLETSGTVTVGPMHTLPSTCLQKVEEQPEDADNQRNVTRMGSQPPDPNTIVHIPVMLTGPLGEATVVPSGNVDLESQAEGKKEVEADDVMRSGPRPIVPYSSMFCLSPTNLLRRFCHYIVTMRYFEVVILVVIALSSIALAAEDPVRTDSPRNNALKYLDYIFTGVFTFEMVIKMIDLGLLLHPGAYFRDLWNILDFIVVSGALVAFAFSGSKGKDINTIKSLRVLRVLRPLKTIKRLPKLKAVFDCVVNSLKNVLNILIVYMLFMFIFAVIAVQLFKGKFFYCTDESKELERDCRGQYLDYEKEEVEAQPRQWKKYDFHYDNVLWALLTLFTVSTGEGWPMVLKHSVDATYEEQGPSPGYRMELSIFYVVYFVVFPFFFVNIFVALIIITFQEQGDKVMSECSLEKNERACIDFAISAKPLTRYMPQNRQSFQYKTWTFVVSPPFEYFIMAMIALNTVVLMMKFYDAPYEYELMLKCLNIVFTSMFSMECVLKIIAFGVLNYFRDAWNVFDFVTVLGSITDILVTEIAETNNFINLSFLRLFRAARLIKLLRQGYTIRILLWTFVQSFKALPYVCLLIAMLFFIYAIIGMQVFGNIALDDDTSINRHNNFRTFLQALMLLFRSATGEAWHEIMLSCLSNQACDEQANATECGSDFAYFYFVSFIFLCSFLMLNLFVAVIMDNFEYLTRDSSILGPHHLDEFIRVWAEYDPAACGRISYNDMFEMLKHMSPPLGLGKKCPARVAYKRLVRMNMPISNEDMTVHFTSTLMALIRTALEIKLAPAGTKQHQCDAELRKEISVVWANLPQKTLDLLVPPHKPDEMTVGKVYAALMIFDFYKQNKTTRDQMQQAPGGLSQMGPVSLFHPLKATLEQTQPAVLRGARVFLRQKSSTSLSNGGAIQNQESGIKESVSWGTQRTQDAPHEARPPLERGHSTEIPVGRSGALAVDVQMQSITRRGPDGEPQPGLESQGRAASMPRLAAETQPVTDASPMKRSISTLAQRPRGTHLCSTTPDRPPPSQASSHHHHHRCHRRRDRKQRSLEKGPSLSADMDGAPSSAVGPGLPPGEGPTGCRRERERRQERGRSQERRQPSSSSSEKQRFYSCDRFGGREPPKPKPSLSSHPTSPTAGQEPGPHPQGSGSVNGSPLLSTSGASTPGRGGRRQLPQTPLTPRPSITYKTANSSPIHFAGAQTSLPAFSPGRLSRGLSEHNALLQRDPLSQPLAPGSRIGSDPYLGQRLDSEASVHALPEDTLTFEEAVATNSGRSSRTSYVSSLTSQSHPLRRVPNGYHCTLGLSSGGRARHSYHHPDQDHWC

`CC(C)(C)OC(=O)N1CSC[C@H]1C(=O)N[C@@H](CSCC1CCCCC1)C(=O)NC1CCN(Cc2ccccc2)CC1` [compound 2, (2R)-N-(1-benzylpiperidin-4-yl)-3-cyclohexylmethylthio-2-((4R)-3-t-butoxycarbonylthiazolidin-4-ylcarbonylamino)propanamide]: the inhibition at 3 µM worked out at 95%.
